Experimental data from US9302999B2, “Substituted triazoles as herbicides” (E. I. DU PONT DE NEMOURS AND COMPANY, priority 2012, dated 2016).

Key:
Type in all cases: in vivo
[1] = system: crabgrass, large (large crabgrass, Digitaria sanguinalis); assay: Test A pre-/postemergence: crabgrass, large
Method in brief: (§1)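 Each species received preemergence soil-directed spraying and, at the same time, postemergence treatment of seedlings 2–10 cm tall. Formulation: non-phytotoxic solvent mixture including surfactant. Response assessed visually about ten days on, relative to untreated controls, 0–100 scale.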

[2] = system: foxtail, giant (giant foxtail, Setaria faberii); assay: Test A pre-/postemergence: foxtail, giant
Method in brief: as §1

[3] = system: pigweed (Amaranthus retroflexus); assay: Test A pre-/postemergence: pigweed
Method in brief: as §1

[4] = system: velvetleaf (Abutilon theophrasti); assay: Test A pre-/postemergence: velvetleaf
Method in brief: as §1

[5] = system: ducksalad (Heteranthera limosa); assay: Test B flooded paddy: ducksalad; conditions: Flood; 250 g ai/ha; applied to paddy water at 2-leaf stage; visually evaluated after 13 to 15 days
Method in brief: (§2)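 At two leaves, seedlings received the test compound via the paddy water, pots having been flooded 3 cm over the soil surface and kept so. Greenhouse-held for 13 to 15 days, then judged by eye against controls on a scale running 0 (no effect) to 100 (complete control).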

[6] = system: barnyardgrass (Echinochloa crus-galli); assay: Test B flooded paddy: barnyardgrass; conditions: Flood; 250 g ai/ha; applied to paddy water at 2-leaf stage; visually evaluated after 13 to 15 days
Method in brief: as §2

[7] = system: wild oat (Avena fatua); assay: Test C pre-/postemergence: wild oat; conditions: Postemergence
Method in brief: (§3)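 Visual injury scored 0–100 (100 = complete control) against untreated controls after 13–15 greenhouse days. Surfactant-containing solvent formulations applied either to soil after sowing (loam/sand) or over 1- to 4-leaf plants, 2–18 cm tall.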

[8] = system: foxtail, giant (giant foxtail, Setaria faberii); assay: Test C pre-/postemergence: foxtail, giant
Method in brief: as §3

[9] = system: kochia (Kochia scoparia); assay: Test C pre-/postemergence: kochia; conditions: Postemergence
Method in brief: as §3

[10] = system: ragweed (common ragweed, Ambrosia elation); assay: Test C pre-/postemergence: ragweed
Method in brief: as §3

[11] = system: chickweed (common chickweed, Stellaria media); assay: Test C postemergence: chickweed
Method in brief: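 Visual ratings of 0 (no effect) to 100 (complete control) were made against controls 13-15 days after a postemergence spray, with plants kept in a greenhouse. Plants were 2-18 cm tall (1- to 4-leaf stage) in Redi-Earth peat/vermiculite medium at treatment.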

[12] = Postemergence, 125 g ai/ha, 0 to 100 scale, 0 is no effect, 100 is complete control
[13] = Postemergence, 500 g ai/ha, visual rating on 0 to 100 scale (0 no effect, 100 complete control), approximately ten days
[14] = Preemergence, 125 g ai/ha, 0 to 100 scale where 0 is no effect and 100 is complete control
[15] = Preemergence, 500 g ai/ha, 0 to 100 scale (0 no effect, 100 complete control)
[16] = 31 g ai/ha, scale 0 to 100 (0 no effect, 100 complete control)
[17] = 62 g ai/ha, scale 0 to 100 (0 no effect, 100 complete control)
[18] = 125 g ai/ha, scale 0 to 100, 0 no effect, 100 complete control
[19] = Postemergence, 31 g ai/ha, scale 0 to 100 (0 no effect, 100 complete control)
[20] = Postemergence, 62 g ai/ha, scale 0 to 100 (0 no effect, 100 complete control)
[21] = Postemergence, 125 g ai/ha, scale 0 to 100, 0 no effect, 100 complete control
[22] = Postemergence, 250 g ai/ha, scale 0 to 100
[23] = Preemergence, 31 g ai/ha, scale of 0 to 100, 0 is no effect, 100 is complete control
[24] = Preemergence, 62 g ai/ha, scale of 0 to 100, 0 is no effect, 100 is complete control
[25] = Preemergence, 125 g ai/ha, scale 0 to 100, 0 no effect, 100 complete control
[26] = Preemergence, 250 g ai/ha, scale 0 to 100, 0 no effect, 100 complete control

## CCc1nn(-c2ccc(F)cc2)nc1Cc1ccnc(C(F)(F)F)c1 [Compound 154]
[1]; [12]
  Plant response rating, Crabgrass, Large: 100
[1]; [13]
  Crabgrass, Large plant response rating: 100
[1]; [14]
  Plant response rating, Crabgrass, Large: 100
[1]; [15]
  Plant response rating, Crabgrass, Large: 100
[2]; [12]
  Plant response rating, Foxtail, Giant: 90
[2]; [13]
  Foxtail, Giant plant response rating: 100
[2]; [14]
  Plant response rating, Foxtail, Giant: 100
[2]; [15]
  Plant response rating, Foxtail, Giant: 100
[3]; [12]
  Plant response rating, Pigweed: 100
[3]; [13]
  Pigweed plant response rating: 100
[3]; [14]
  Plant response rating, Pigweed: 100
[3]; [15]
  Plant response rating, Pigweed: 100
[4]; [12]
  Plant response rating, Velvetleaf: 100
[4]; [13]
  Velvetleaf plant response rating: 100
[4]; [14]
  Plant response rating, Velvetleaf: 30
[4]; [15]
  Plant response rating, Velvetleaf: 70
[5]
  Plant response rating, Ducksalad (0 to 100 scale, 0 is no effect, 100 is complete control): 80
[6]
  Plant response rating, Barnyardgrass (0 to 100 scale, 0 is no effect, 100 is complete control): 60
[7]; [16]
  Plant response rating, Oat, Wild: 15
[7]; [17]
  Plant response rating, Oat, Wild: 35
[7]; [18]
  Plant response rating, Oat, Wild: 65
[7]; 250 g ai/ha, scale 0 to 100
  Plant response rating, Oat, Wild: 65
[8]; [19]
  Plant response rating, Foxtail, Giant: 20
[8]; [20]
  Plant response rating, Foxtail, Giant: 20
[8]; [21]
  Plant response rating, Foxtail, Giant: 55
[8]; [22]
  Plant response rating, Foxtail, Giant: 75
[8]; [23]
  Plant response rating, Foxtail, Giant: 100
[8]; [24]
  Plant response rating, Foxtail, Giant: 100
[8]; [25]
  Plant response rating, Foxtail, Giant: 100
[8]; [26]
  Plant response rating, Foxtail, Giant: 100
[9]; [16]
  Plant response rating, Kochia: 90
[9]; [17]
  Plant response rating, Kochia: 90
[9]; [18]
  Plant response rating, Kochia: 90
[9]; 250 g ai/ha, scale 0 to 100
  Plant response rating, Kochia: 95
[10]; [19]
  Plant response rating, Ragweed: 30
[10]; [20]
  Plant response rating, Ragweed: 30
[10]; [21]
  Plant response rating, Ragweed: 30
[10]; [22]
  Plant response rating, Ragweed: 40
[10]; [23]
  Plant response rating, Ragweed: 0
[10]; [24]
  Plant response rating, Ragweed: 0
[10]; [25]
  Plant response rating, Ragweed: 50
[10]; [26]
  Plant response rating, Ragweed: 70
[11]; [16]
  Plant response rating, Chickweed: 85
[11]; [17]
  Plant response rating, Chickweed: 85
[11]; [18]
  Plant response rating, Chickweed: 95
[11]; 250 g ai/ha, scale 0 to 100
  Plant response rating, Chickweed: 95
